Data: patent publication US4450173A, “Compounds and method for treatment or prophylaxis of cardiac disorders” (American Hospital Supply Corporation, priority 1982, dated 1984)
Where a name gives a salt, the structure may show the parent alone. Read-outs that look alike come from different tables or passages of the source.

Columns and labels:
[1] = biological target: guinea pig tracheal strips (Cavia porcellus, UniProt Q8K4Z4); assay: cell-based; format: cell-based; conditions: for pA2 Trachea: guinea pig trachea, carbachol tension, isoproterenol, 60 minute incubation, pA2 = -log KB; for Kb: read-out: pA2 Trachea (converted)
Description: Each tissue was suspended between a fixed glass rod and a Statham® Universal Transducer connected to a Beckman® recorder. Atria were allowed to beat spontaneously under a loading tension of approximately 0.5 gm. Intrinsic depressant for stimulant activity was determined for each compound by progressively increasing concentrations in the tissue baths at 60-minute intervals. Tissues were not washed between increments. […] Changes in rate in response to isoproterenol were measured in the absence and presence of test compounds. Spiral strips of guinea pig trachea were suspended under 5 gm resting tension and incubated with phentolamine, tropolone and cocaine. Active tension was generated by addition of carbachol (3.0×10^-7 M) and decreases in tension in response to isoproterenol were quantitated. Cumulative concentration-response curves were produced with isoproterenol both before and after 60 minute incubation of test compounds with atria and trachea. The blocking potency of test compounds was estimated by computing pA2 values (-log KB) by the method of Furchgott, The Pharmacological Differentiation of Adrenergic Receptors, Ann. […] A ratio greater than one indicates cardioselectivity.

[2] = tested on: guinea pig right atria and guinea pig tracheal strips; assay: Cardioselectivity, KB tracheal/KB atrial; format: cell-based
Description: Several of the compounds of the present invention were tested for β-blocking activity in vitro using guinea pig right atria and guinea pig tracheal strips mounted in a tissue bath containing oxygenated (95% O2 -5% CO2) Krebs physiological salt solution at 37° C. Each tissue was suspended between a fixed glass rod and a Statham® Universal Transducer connected to a Beckman® recorder. Atria were allowed to beat spontaneously under a loading tension of approximately 0.5 gm. Intrinsic depressant for stimulant activity was determined for each compound by progressively increasing concentrations in the tissue baths at 60-minute intervals. Tissues were not washed between increments. […]. Changes in rate in response to isoproterenol were measured in the absence and presence of test compounds. Spiral strips of guinea pig trachea were suspended under 5 gm resting tension and incubated with phentolamine, tropolone and cocaine. Active tension was generated by addition of carbachol (3.0×10^-7 M) and decreases in tension in response to isoproterenol were quantitated. Cumulative concentration-response curves were produced with isoproterenol both before and after 60 minute incubation of test compounds with atria and trachea. The blocking potency of test compounds was estimated by computing pA2 values (-log KB) by the method of Furchgott, The Pharmacological Differentiation of Adrenergic Receptors, Ann. N.Y. Acad. Sci.; 139: 553-570 (1967). Comparison of blockade of right atrial and tracheal responses to isoproterenol permitted assessment of cardioselectivity of test compounds; […]. A ratio greater than one indicates cardioselectivity. […]

[3] = tested on: heart rate response to isoproterenol (β-receptor mediated tachycardia); assay: Duration of β-blockade in vivo in anesthetized dogs, 40-minute infusion; design: species or system dog; conditions: for 80% Recovery Time: after 40-minute infusion, normalized to 50% inhibition; for ED50: Canis lupus familiaris, iv, 40 min, read-out: Potency (mg/kg/40 min)
Description: (§1) The duration of β-blockade was determined in vivo using pentobartital-anesthetized dogs instrumented for measurement of heart rate using a Beckman® cardiotachometer triggered electronically by a phasic aortic blood pressure signal. Both vagus nerves were severed in the cervical region and the animals were mechanically ventilated. Two experimental designs were used. The first employed a 40-minute infusion of test compound and the second used a 3-hour infusion of test compound. In the 40-minute model, isoproterenol was infused into a foreleg vein at the rate of 0.5 μg/kg/min to induce a β-receptor mediated tachycardia. Various doses of test compound are then infused into a femoral vein over a period of 40 minutes. This infusion was then terminated and recovery from blockade was quantitated. […] This cumulative dose is expressed as mg/kg and is an indication of potency. The time period required for 80% recovery of heart rate response for each dose of test drug was also measured to quantitate duration of action. […] Test compounds were dissolved in 0.9% NaCl and infused at a rate of 0.05 mL/kg/min or less. In the 3-hour infusion model, bolus doses of isoproterenol (0.4 μg/kg) were used to assess the degree of β-blockade and recovery from β-blockade after termination of the infusion. The doses were spaced at 10-minute intervals and were given before, during and following the infusion of test compounds. The infusion rate was adjusted so that at the end of the 3-hour infusion period the degree of isoproterenol inhibition averaged about 50% of control.

[4] = biological target: guinea pig right atria (Cavia porcellus, UniProt H0W3H1); assay: β-blocking activity in vitro, guinea pig right atria (rate response to isoproterenol); format: cell-based; conditions: for pA2 Atria: guinea pig right atria, isoproterenol, 60 minute incubation, pA2 = -log KB
Description: Each tissue was suspended between a fixed glass rod and a Statham® Universal Transducer connected to a Beckman® recorder. Atria were allowed to beat spontaneously under a loading tension of approximately 0.5 gm. Intrinsic depressant for stimulant activity was determined for each compound by progressively increasing concentrations in the tissue baths at 60-minute intervals. Tissues were not washed between increments. The maximum concentration showing little or no cardiodepressant activity was chosen for blockade experiments. Changes in rate in response to isoproterenol were measured in the absence and presence of test compounds. Spiral strips of guinea pig trachea were suspended under 5 gm resting tension and incubated with phentolamine, tropolone and cocaine. Active tension was generated by addition of carbachol (3.0×10^-7 M) and decreases in tension in response to isoproterenol were quantitated. Cumulative concentration-response curves were produced with isoproterenol both before and after 60 minute incubation of test compounds with atria and trachea. The blocking potency of test compounds was estimated by computing pA2 values (-log KB) by the method of Furchgott, The Pharmacological Differentiation of Adrenergic Receptors, Ann. […] The degree of cardioselectivity was estimated from the ratio, KB tracheal/KB atrial (10^(pA.sbsp.2^atria-pA.sbsp.2^trachea)). A ratio greater than one indicates cardioselectivity. Test drugs were dissolved in distilled water and added to the bath (30 mL) in a volume of 10 or 100 μL.

[5] = tested on: heart rate response to isoproterenol; assay: Duration of β-blockade in vivo in anesthetized dogs, 3-hour infusion; design: species or system dog; conditions: for ED50: Canis lupus familiaris, iv, 3-hour infusion, read-out: Potency (mg/kg/180 min); for ED50 / % I (Percent inhibition of heart rate response to isoproterenol): bolus isoproterenol 0.4 μg/kg; for 80% Recovery Time: after 3-hour infusion; for % I (Percent inhibition of heart rate response to isoproterenol): end of 3-hour infusion
Description: as §1

[6] = Disappearance in vitro in human whole blood; format: in vitro ADME; conditions: 50 μg in 1 mL added to 1 mL human whole blood, 37° C.; read-out: T1/2 Human Whole Blood
Description: (§2) The rate of disappearance of a compound is expressed as the half-life (T1/2), which is the time period in which one-half of the initial amount of compound tested disappears. In each experiment, 1 mL of a solution containing 50 μg of the test compound was added to 1 mL of whole blood or 1 mL of a 33% (w/v) liver homogenate. […] At the designated time periods, the test mixtures were removed from the incubator and transferred to a 0° C. ice bath. Acetonitrile (2 mL) was immediately added and the mixtures were mixed to stop enzymatic hydrolysis. Zero time samples were prepared by adding 2 mL of acetonrile to denature the proteins prior to addition of the test compounds. […] The half life of each test compound was determined graphically by plotting the decrease in concentration as a function of time.

[7] = Disappearance in vitro in dog whole blood; format: in vitro ADME; conditions: 50 μg in 1 mL added to 1 mL dog whole blood, 37° C.; read-out: T1/2 Dog Whole Blood
Description: as §2

[8] = Disappearance in vitro in dog liver homogenate; format: in vitro ADME; conditions: 50 μg in 1 mL added to 1 mL of 33% (w/v) dog liver homogenate, 37° C.; read-out: T1/2 Dog Liver Homogenate
Description: as §2

[9] = ratio KB tracheal/KB atrial, greater than one indicates cardioselectivity
[10] = read-out: pA2 Atria (converted)

Sequence of guinea pig tracheal strips (Q8K4Z4 whole entry): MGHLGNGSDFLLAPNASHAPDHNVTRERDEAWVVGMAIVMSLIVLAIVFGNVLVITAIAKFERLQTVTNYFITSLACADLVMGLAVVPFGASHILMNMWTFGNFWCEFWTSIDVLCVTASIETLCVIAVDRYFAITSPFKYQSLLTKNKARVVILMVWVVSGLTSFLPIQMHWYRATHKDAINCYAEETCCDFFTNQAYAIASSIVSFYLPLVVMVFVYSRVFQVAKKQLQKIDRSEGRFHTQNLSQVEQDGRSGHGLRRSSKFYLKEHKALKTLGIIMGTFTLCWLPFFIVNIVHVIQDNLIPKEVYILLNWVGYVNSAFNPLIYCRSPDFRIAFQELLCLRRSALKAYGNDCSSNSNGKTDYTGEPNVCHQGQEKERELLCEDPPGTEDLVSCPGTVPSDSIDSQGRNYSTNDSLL
Sequence of guinea pig right atria (H0W3H1 1-470): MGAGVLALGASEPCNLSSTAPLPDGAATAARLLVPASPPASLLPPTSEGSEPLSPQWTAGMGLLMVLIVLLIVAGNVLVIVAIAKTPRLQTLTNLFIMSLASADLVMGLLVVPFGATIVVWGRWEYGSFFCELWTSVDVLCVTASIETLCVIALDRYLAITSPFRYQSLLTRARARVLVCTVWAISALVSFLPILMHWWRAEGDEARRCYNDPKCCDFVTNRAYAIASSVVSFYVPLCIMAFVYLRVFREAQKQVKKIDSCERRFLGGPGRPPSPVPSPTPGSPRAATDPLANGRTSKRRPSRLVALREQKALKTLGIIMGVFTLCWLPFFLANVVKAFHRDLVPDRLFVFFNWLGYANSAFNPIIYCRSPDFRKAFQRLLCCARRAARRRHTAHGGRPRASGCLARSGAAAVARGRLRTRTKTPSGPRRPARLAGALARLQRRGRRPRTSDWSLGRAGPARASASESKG

CCOC(=O)CNCC(O)COc1ccccc1 (stereo not shown) [Example I, Ethyl N-(2-Hydroxy-3-phenoxypropyl) glycinate Oxalate]
pA2 Trachea [1]: 5.6 | Cardioselectivity [2, 9]: 1 | Potency (mg/kg/40 min) ([3]; cumulative dose over 40-minute infusion, normalized to 50% inhibition of isoproterenol response, dogs): very low

CCOC(=O)CNCC(O)COc1cccc2ccccc12 (stereo not shown) [Example II, Ethyl N-[[2-Hydroxy-3-(1-naphthoxy]propyl]glycinate Oxalate Hemihydrate]
80% Recovery Time ([3]; dogs): 53 ± 11 min

CCOC(=O)CCNCC(O)COc1ccccc1 (stereo not shown) [Example III, Ethyl 3-[N-[2-Hydroxy-3-phenoxy)propyl]amino]propionate Oxalate]
pA2 Trachea [1]: 5.9 | Cardioselectivity [2, 9]: 25 | ED50 [3]: 12.6 ± 4.1 mg/kg | 80% Recovery Time ([3]; dogs): 29 ± 13 min

CCOC(=O)CCCNCC(O)COc1ccccc1 (stereo not shown) [Example IV]
pA2 Trachea [1]: 6.0

CCOC(=O)C(Cc1ccc(O)cc1)NCC(O)COc1ccccc1 (stereo not shown) [Example V, Ethyl N[(2-Hydroxy-3-phenoxy)propyl]tyrosinate]
pA2 Atria [4]: inactive | pA2 Trachea [1]: inactive

CCOC(=O)CCNCC(O)COc1ccc(Cl)cc1 (stereo not shown) [Example VI, Ethyl 3[N-[3-[4-(chlorophenoxy)-2-hydroxy]propyl]amino]propionate Hydrochloride]
pA2 Trachea [1]: 5.6 | Cardioselectivity [2, 9]: 6

CCOC(=O)CCNCC(O)COc1ccc(CCC(=O)OC)cc1.Cl (stereo not shown) [Example VII, Ethyl 3-[N-[2-Hydroxy-3-[4-[2-(methoxycarbonyl)ethyl]phenoxy]propyl]amino]propionate Hydrochloride]
Kb [4, 10]: 1260 nM | Kb [1]: > 10000 nM | Cardioselectivity [2, 9]: > 8

CC(=O)Nc1ccc(OCC(O)CNC(C)C)cc1 (stereo not shown) [Practolol, reference compound]
Kb [4]: […] | 80% Recovery Time ([3]; dogs): 61 min

CC(C)NCC(O)COc1cccc2ccccc12 (stereo not shown) [Propranolol, reference compound]
80% Recovery Time ([3]; dogs): 46 min

CCOC(=O)CCNCC(O)COc1ccccc1C(=O)OC (stereo not shown) [VIII, Ethyl 3-[N-[2-Hydroxy-3-[2-(methoxycarbonyl)phenoxy]propyl]amino]propionateOxalate Hemihydrate]
Kb [4, 10]: 251 nM | pA2 Trachea [1]: 6.6 | Cardioselectivity [2]: 1.0 | ED50 [5]: 27.4 ± 6 mg/kg | 80% Recovery Time [5]: 10 ± 2 min | % I (Percent inhibition of heart rate response to isoproterenol) [5]: 53 ± 2%

Cc1ccccc1OCC(O)CNCCC(=O)Oc1ccc(F)cc1 (stereo not shown) [XIX]
Kb [4, 10]: 2000 nM

CCOC(=O)CCCNCC(O)COc1ccccc1C (stereo not shown) [XI]
pA2 Trachea [1]: 6.7 | Cardioselectivity [2, 9]: 5 | ED50 [3]: 3.1 ± 0.7 mg/kg | 80% Recovery Time ([3]; dogs): 15 ± 2 min | half-life [6]: 1.95 ± 0.65 h | half-life [7]: > 3 h

Cc1ccccc1OCC(O)CNCCC(=O)Oc1ccccc1 (stereo not shown) [XVIII]
Kb [4, 10]: 398 nM | ED50 [5]: 54 ± 14 mg/kg | 80% Recovery Time [5]: > 60 min | % I (Percent inhibition of heart rate response to isoproterenol) [5]: 54 ± 8%

COC(=O)CCNCC(O)COc1ccccc1C (stereo not shown) [XVII]
pA2 Trachea [1]: 7.0 | Cardioselectivity [2]: 1.6 | ED50 [5]: 4.4 mg/kg | 80% Recovery Time [5]: 27 ± 4 min | % I (Percent inhibition of heart rate response to isoproterenol) [5]: 56 ± 4% | half-life [6]: 2.47 ± 0.0333 h | half-life [7]: 0.867 ± 0.15 h | half-life [8]: 9 ± 8 min

COC(=O)c1ccc(CNCC(O)COc2ccccc2C)cc1 (stereo not shown) [XVI]
Kb [1]: 200 nM | Cardioselectivity [2, 9]: 1.6

CCOC(=O)c1ccc(CNCC(O)COc2ccccc2C)cc1 (stereo not shown) [XV]
Kb [1]: 1260 nM | Cardioselectivity [2]: 5 | half-life [6]: > 3 h | half-life [7]: > 3 h | half-life [8]: 9 ± 6 min

CCOC(=O)CCNCC(O)COc1cccc(C)c1 (stereo not shown) [XXIII]
pA2 Trachea [1]: 6.5 | Cardioselectivity [2, 9]: 1.6

CCOC(=O)CCNCC(O)COc1cccc(Cl)c1 (stereo not shown) [XXII]
pA2 Trachea [1]: 6.7 | Cardioselectivity [2, 9]: 5 | ED50 [5]: 8.5 mg/kg | 80% Recovery Time [5]: > 60 min | % I (Percent inhibition of heart rate response to isoproterenol) [5]: 77% | half-life [6]: 1.97 ± 0.433 h | half-life [7]: 0.667 ± 0.25 h | half-life [8]: 3 ± 3 min

CCOC(=O)CCNCC(O)COc1cccc(OC)c1 (stereo not shown) [XXIV]
pA2 Trachea [1]: 6.7 | Cardioselectivity [2, 9]: .5

COC(=O)CCNCC(O)COc1cccc2ccccc12 (stereo not shown) [XXIX]
Kb [1]: 25.1 nM | Cardioselectivity [2, 9]: 0.3

CCOC(=O)CCNCC(O)COc1ccccc1Cl (stereo not shown) [XXI]
pA2 Trachea [1]: 6.6 | Cardioselectivity [2, 9]: 6 | ED50 [5]: 10.9 mg/kg | 80% Recovery Time [5]: > 60 min | % I (Percent inhibition of heart rate response to isoproterenol) [5]: 77% | half-life [6]: 2.12 ± 0.833 h | half-life [7]: 1.23 ± 0.35 h | half-life [8]: 4 ± 3 min

COc1ccc(CCOC(=O)CCNCC(O)COc2ccccc2C)cc1OC (stereo not shown) [XXVIII]
pA2 Atria [4]: 7.0 | pA2 Trachea [1]: 6.6 | Cardioselectivity [2]: 2.5 | ED50 [5]: 168 mg/kg | 80% Recovery Time [5]: > 60 min | % I (Percent inhibition of heart rate response to isoproterenol) [5]: 85%

CCOC(=O)CNCC(O)COc1ccccc1C (stereo not shown) [XXVII]
pA2 Trachea [1]: 6.2 | Cardioselectivity [2, 9]: 0.5

CCOC(=O)CCNCC(O)COc1c(C)cccc1C (stereo not shown) [XXVI]
Kb [4, 10]: 794 nM

CCOC(=O)CCNCC(O)COc1ccc(OC)cc1 (stereo not shown) [XXV]
ED50 [3]: 17.2 ± 1.2 mg/kg | 80% Recovery Time ([3]; dogs): 11 ± 2 min | half-life [6]: 2.63 ± 0.133 h | half-life [7]: > 3 h | half-life [8]: 4 ± 2.5 min

Cc1ccccc1OCC(O)CNCCC(=O)OCC(F)(F)F (stereo not shown) [XX]
Kb [4, 10]: 2000 nM
